The text below walks through data of patent US9464326B2, “Total and phosphorylated IL-1 receptor-associated kinase-1 and IL-1 receptor-associated kinase-4 as a biomarker for cancer progression and chemotherapy resistance” (University of Maryland, Baltimore, priority 2012, dated 2016).

One assay concerns A375 melanoma cells. The assay can be described thus: A375 melanoma xenograft model. To be noted: IRAK-1,-4 inhibitor 35 mg/kg intratumorally, vinblastine 0.25 mg/kg i.p.; control 17 days.
A further assay has as its target IRAK-1 (Homo sapiens, UniProt P51617). Conditions: supplier (EMD Millipore) description; cited from earlier work.
For a further assay, the system named is CCRF-CEM cells. The assay can be described thus: Western blot of signaling proteins in CCRF-CEM. It is filed as cell-based, human. To be noted: 5 uM, 48 hours, FIG. 3D. The source says: (FIG. 3C). […] (FIG. 3D). […] (FIG. 3D).
A further assay deals with C32 melanoma cells. The assay can be described thus: Vinblastine-induced apoptosis in C32 (flow cytometry). The assay is classed as cell-based, human. Conditions: vinblastine 100 nM with TLR1-TLR2 ligand 2.5 μg/ml, 48 hours, FIG. 20B. As to the method:
FIG. 20. Role of TLR-induced cytokines and NF-kB on cell survival. (A) A375 melanoma cells were cultured in a 48-well plates in the presence or absence of NF-kB inhibitor NF-kB inhibitor SN50 (100 nM; Anaspec) with or without vinblastine (100 nM) or Doxorubicin (0.25 μg/ml). The percentage of apoptotic cells was measured by staining cells with Annexin and PI 48 hours later and analyzed by flow cytometry. (B) C32 melanoma cells were cultured in the presence of vinblastine (100 nM) and in the […] of TLR1-TLR2 ligand (2.5 μg/ml) or the presence of supernatant from TLR1-TLR2-stimulated A375 cells. After 48 hours, apoptosis was measured by flow cytometry. (C) A375 melanoma cells were cultured in the presence or absence of vinblastine (100 nM) and IL-1 (50 ng/ml; BioLegend), IL-18 (100 ng/ml; Medical and Biological Lab) or CXCL1 (50 ng/ml; R&D Systems). Apoptosis was measured 48 hours later by flow cytometry.
Alternatively, cytokines/chemokines produced in response to TLR-IRAK signaling might also contribute to the chemoprotective effects. Supernatant from TLR-1-TLR-2 stimulated or unstimulated A375 melanoma cells was added to the C32 melanoma cells in the presence or absence of vinblastine. Another group of cells were treated with TLR1-TLR2 ligand and apoptosis was examined by flow cytometry. […]
(In general: In flow cytometry, cells or beads pass a laser one at a time.)

The subject of assay [1] is Primary T-cells Activated. The assay can be described thus: Proliferation (3H-thymidine) of activated primary T-cells. It is filed as cell-based, human. From the text:
(§1) CCRF-CEM, CEM/C1, CEM/C2, CEM-C7, Jurkat, Loucy, Molt-4, HSB-2, SUP-T1, Hut 78, HH, Hut 102, MO, and H9 T-leukemia and T-lymphoma cell lines were purchased from the American Type Culture Collection (Manassas, Va., USA). All of the cell lines were initially expanded and cryopreserved within one month of receipt. Cells were typically used for 6 months at which time a fresh vial of cryopreserved cells was used. Total T cells from healthy donors were isolated via negative selection followed by positive selection using a CD3+ selection kit (Invitrogen, Carlsbad, Calif.). T cells were isolated from patients with T-ALL bone marrow or peripheral blood samples containing more than 70% leukemia cells using a CD2+ isolation kit (STEMCELL Technologies, Vancouver, Canada). All tissues were collected under institutional IRB-approved protocols and all participants gave written informed assent/consent. For in vitro experiments, T-ALL cells were cultured in AIM-V medium supplemented with 20% human AB serum in the presence of recombinant human stem cell factor (50 ng/mL; Amgen, Thousand Oaks, Calif.), insulin (20 nM; Sigma-Aldrich, St Louis, Mo., USA) and IL-7 (50 ng/mL; R&D Systems, Minneapolis, Minn., USA). In other experiments, protein lysate was collected using the Full Moon Biosystems (Sunnyvale, Calif., USA) buffer prior to protein examination by western blot or protein array.
(§2) Cells were cultured in a 96-well plate (Corning Costar, Corning, N.Y., USA) with various concentrations of TLR ligands 1-9, starting at 10 μg/ml, in a final volume of 200 ul. TLR ligands were diluted 2-fold. Cell lines (25-40×10^3/well) were cultured for 54 hours, whereas fresh patient-derived T-ALL cells (200×10^3/well) were cultured for 30 hours prior to adding [^3H]-thymidine for 18 hours. After this time point, cells were harvested with a Packard Filter-Mate-96 cell harvester (Perkin Elmer, Waltham, Mass., USA) and counted on Packard Top Count-NXT (Perkin Elmer, Waltham, Mass., USA). Results were expressed as average counts per minute (cpm). In some experiments CCRF-CEM cells were pre-treated with TLR1-TLR2 ligand (Pam3CysK4; 2.5 ug/ml) for 48 hrs, washed, and then cultured in the presence of varying concentrations of FBS. Forty-eight hours later, proliferation (±SD) was determined by ^3H-thymidine incorporation. Alternatively, apoptosis was measured by flow cytometry after staining cells with Annexin-V (BD Pharmingen, San Diego, Calif., USA) and propidium iodide (Sigma). Cell number was counted under microscopy by staining cells with trypan blue.
(§3) The following TLR ligands were purchased from Invivogen (San Diego, Calif., USA): tripalmitoyl-S-(bis(palmitoyloxy)propyl)-Cys-Ser-(Lys)3-Lys (TLR1-2); Poly I:C (TLR3); ultrapure S. Minnesota Lipopolysaccharide (TLR4); S. typhimurium flagellin (TLR5); FSL-1 (TLR2/6); Imiquimod (TLR7); ssRNA40/Lyovec (TLR8); CpG-ODN 2006 (TLR9).

The next assay concerns CEM-C2. The assay can be described thus: Proliferation (3H-thymidine) of CEM-C2. The assay is classed as cell-based, human.
Description: as §1
as §2, with “blue. […]” for “blue.”

A further assay has as its system Hut-78. As to the kind of experiment: Proliferation (3H-thymidine) of Hut-78. It is filed as cell-based, human. Conditions: 3H-thymidine uptake, 72 h.
Description: as §1, with “In other experiments, protein lysate was collected using the Full Moon Biosystems (Sunnyvale, Calif., USA) buffer prior to protein examination by western blot or protein array.” left out
Cells were cultured in a 96-well plate (Corning Costar, Corning, N.Y., USA) with various concentrations of TLR ligands 1-9, starting at 10 μg/ml, in a final volume of 200 ul. […] After this time point, cells were harvested with a Packard Filter-Mate-96 cell harvester (Perkin Elmer, Waltham, Mass., USA) and counted on Packard Top Count-NXT (Perkin Elmer, Waltham, Mass., USA). Results were expressed as average counts per minute (cpm). […] Forty-eight hours later, proliferation (±SD) was determined by ^3H-thymidine incorporation. Alternatively, apoptosis was measured by flow cytometry after staining cells with Annexin-V (BD Pharmingen, San Diego, Calif., USA) and propidium iodide (Sigma). Cell number was counted under microscopy by staining cells with trypan blue. […]

In the next assay the test system is CEM-C7. As to the kind of experiment: Proliferation (3H-thymidine) of CEM-C7. It is filed as cell-based, human.
Description: as §1, §2, §3

IRAK-1, sequence (P51617 whole entry): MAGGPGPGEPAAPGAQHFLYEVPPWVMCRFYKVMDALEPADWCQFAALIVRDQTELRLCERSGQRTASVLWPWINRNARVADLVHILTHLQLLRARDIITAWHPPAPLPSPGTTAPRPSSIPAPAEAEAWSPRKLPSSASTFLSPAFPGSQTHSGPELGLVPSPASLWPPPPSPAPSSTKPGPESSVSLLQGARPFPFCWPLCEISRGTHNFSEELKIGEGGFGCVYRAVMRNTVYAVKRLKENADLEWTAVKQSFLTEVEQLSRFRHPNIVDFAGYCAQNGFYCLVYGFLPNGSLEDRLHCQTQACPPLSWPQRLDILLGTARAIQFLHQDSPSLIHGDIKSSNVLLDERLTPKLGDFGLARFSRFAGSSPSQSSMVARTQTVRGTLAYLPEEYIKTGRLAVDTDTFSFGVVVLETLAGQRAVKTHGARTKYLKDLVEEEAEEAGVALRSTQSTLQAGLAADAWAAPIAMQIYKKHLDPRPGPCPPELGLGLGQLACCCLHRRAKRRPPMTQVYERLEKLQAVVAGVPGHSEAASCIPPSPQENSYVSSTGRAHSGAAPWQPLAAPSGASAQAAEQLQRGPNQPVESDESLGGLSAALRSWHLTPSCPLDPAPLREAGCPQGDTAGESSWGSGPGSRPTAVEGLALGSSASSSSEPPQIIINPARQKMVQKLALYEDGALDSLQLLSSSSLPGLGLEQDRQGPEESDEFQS
Description for A375 melanoma cells: (A-B) NSG mice (n=5) were injected subcutaneously with A375 melanoma cells. When tumors reached a size of approximately 50 mm^2 mice remained untreated or injected intraperitoneally with vinblastine mg/kg; administered every 2 days for 10 days), or peritumorally with IRAK-1,-4 inhibitor (35 mg/kg), or vinblastine plus IRAK.-1,-4 inhibitor. Tumor sizes were calculated by measuring perpendicular by longitudinal diameter;*, P<0.05. Mouse survival data were analyzed using the exact log-rank test;*, P<0.05, **P<0.001.
NOD.Cg-Prkdc^scid Il2rg^tmWJZ; SzJ IL2RG (NSG) mice (Jackson Laboratories, Bar Harbor, Me.) were subcutaneously (s.c.) injected with 2.5×10^6 A375 melanoma cells delivered in PBS. […] When tumors reached a size of approximately 50 mm^2 mice were injected intratumorally (i.t.) with 35 mg/kg of IRAK-1,-4 inhibitor or an equal volume of vehicle (DMSO). Mice were intraperitoneally (i.p.) injected with vinblastine (0.25 mg/kg) every 2 days for 5 days starting on the same day that mice received with IRAK-1,-4 inhibitor. Tumor sizes were analyzed using a mixed model approach for repeated measurements and mouse survival data were analyzed with the exact log-rank test.

On to `O=C(Nc1nc2ccccc2n1CCN1CCOCC1)c1cccc([N+](=O)[O-])c1` [IRAK-1,-4 inhibitor], for which, in the assay on A375 melanoma cells, the median survival turned out to be 19 days. Further, on IRAK-1, the “inhibition of IRAK-1” value is reported as “selectively inhibits”. In the assay on CCRF-CEM cells, the “decrease of phosphorylated-p65 levels” value is reported as “four-fold”, the p-ERK1/2 levels result is on record as “did not alter”, the “reduction of p-AKT expression levels” value is listed as “five-fold” and the “reduction of p-mTOR expression levels” value is given as “approximately six-fold”.
On to “tripalmitoyl-S-(bis(palmitoyloxy)propyl)-Cys-Ser-(Lys)3-Lys [Pam3Cysk4]”, for which the vinblastine-induced apoptosis result in the assay with C32 melanoma cells was “little effect”. Further, the “Proliferative effects of TLR ligands” value is “+ (enhanced proliferation by 25% or greater)” in assay [1] (Primary T-cells, Activated, 3H-thymidine uptake, 72 h); “+ (enhanced proliferation by 25% or greater)” in the assay with CEM-C2 (3H-thymidine uptake, 72 h); “∘” with Hut-78; “+ (enhanced proliferation by 25% or greater)” in the assay on CEM-C7 (3H-thymidine uptake, 72 h). Further, the “TLR ligand concentration in parentheses below the symbol” value in assay [1] (Primary T-cells, Activated, no unit in table (μg/ml)) is on record as “(10)”; in the assay with CEM-C2 (no unit in table (μg/ml)), “(2.5)”; with CEM-C7 (no unit in table (μg/ml)), “(2.5)”. The “effect on proliferation / T-cell expansion (in words)” value in assay [1] (T cells from healthy donors, together with T cell receptor stimulation, FIG. 1A) is “enhanced proliferation”.
